Patent US8618152B2, “Inhibitors of serine proteases, particularly HCV NS3-NS4A proteases” (Vertex Pharmaceuticals Incorporated, priority 2003, dated 2013)
*1 amine or outer side, *2 acyl side, *3 side chain or, on linkers, in order; H or OH if unused. Where a SMILES comes first, the peptide text is derived from it. [ ]: non-standard residue; d: D form. The star is where a group is joined. ξ: configuration not given here. Pro(trans-3-iPr) = CC(C)[C@H]1CCN[C@@H]1C(=O)O; Pro(3S-Et) = CC[C@H]1CCN[C@@H]1C(=O)O; Phe(2-Me) = Cc1ccccc1C[C@H](N)C(=O)O; Pyrazinecarbonyl = O=C(c1cnccn1)*; X1 = CCCC(N[*:1])C(=O)C(=O)[*:2]; Ile(3ξ) = CCC(C)[C@H](N)C(=O)O; aThr = C[C@H](O)[C@H](N)C(=O)O; Chg = N[C@H](C(=O)O)C1CCCCC1; Tle = CC(C)(C)[C@H](N)C(=O)O

biological target: HCV NS3-NS4A protease (tNS3 with KK4A) (Hepatitis C virus genotype 1a, UniProt P27958); experiment: HCV Ki assay (HPLC microbore separation of 5AB substrate and products); format: biochemical; settings: 25 nM tNS3, 25 μM KK4A, 25 μM 5AB substrate, 20 min at 30 C; read-out: Ki
Sequence (P27958 1027-1208): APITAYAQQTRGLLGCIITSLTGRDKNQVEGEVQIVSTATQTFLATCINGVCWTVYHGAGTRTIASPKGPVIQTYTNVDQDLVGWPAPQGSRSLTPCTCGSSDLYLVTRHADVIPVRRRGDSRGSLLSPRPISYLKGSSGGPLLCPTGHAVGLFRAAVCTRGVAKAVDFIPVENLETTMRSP
Protocol: HPLC Microbore Method for Separation of 5AB Substrate and Products
Substrate: NH2-Glu-Asp-Val-Val-(alpha)Abu-Cys-Ser-Met-Ser-Tyr-COOH
A stock solution of 20 mM 5AB (or concentration of your choice) was made in DMSO w/0.2M DTT. This was stored in aliquots at −20 C.
Buffer: 50 mM HEPES, pH 7.8; 20% glycerol; 100 mM NaCl
Total assay volume was 100 μL
The buffer, KK4A, DTT, and tNS3 were combined; distributed 78 μL each into wells of 96 well plate. This was incubated at 30 C for ˜5-10 min.
2.5 μL of appropriate concentration of test compound was dissolved in DMSO (DMSO only for control) and added to each well. This was incubated at room temperature for 15 min.
Initiated reaction by addition of 20 μL of 250 μM 5AB substrate (25 μM concentration is equivalent or slightly lower than the Km for 5AB).
Incubated for 20 min at 30 C.
Terminated reaction by addition of 25 μL of 10% TFA
Transferred 120 μL aliquots to HPLC vials
Separated SMSY product from substrate and KK4A by the following method:
Microbore Separation Method:
Instrumentation: Agilent 1100
Column thermostated chamber G1316A
Diode array detector G1315A
Solvent A=HPLC grade water+0.1% TFA
Solvent B=HPLC grade acetonitrile+0.1% TFA
Stop time: 17 min Post-run time: 10 min.

| Compound | Ki [nM] |
| --- | --- |
| CCCC(NC(=O)[C@@H]1[C@@H](CC)CCN1C(=O)[C@@H](NC(=O)[C@@H](NC(=O)c1cnccn1)C1CCCCC1)C(C)(C)C)C(=O)C(=O)N[C@@H](Cc1ccccc1)C(=O)O (stereo partly drawn) [Compound 41] (Pyrazinecarbonyl-[Chg][Tle][Pro(3S-Et)][X1]F-OH) | > 500 |
| CCCC(NC(=O)[C@@H]1C(CC)CCN1C(=O)[C@@H](NC(=O)[C@@H](NC(=O)c1cnccn1)C(C)C)C(C)C)C(=O)C(=O)N[C@@H](Cc1ccccc1)C(=O)O (stereo partly shown) [Compound 5] | < 100 |
| CCCC(NC(=O)[C@@H]1[C@@H](CC)CCN1C(=O)[C@@H](NC(=O)[C@@H](NC(=O)c1cnccn1)C1CCCCC1)C(C)CC)C(=O)C(=O)N[C@@H](Cc1ccccc1)C(=O)O (stereo partly drawn) [Compound 29] (Pyrazinecarbonyl-[Chg][Ile(3ξ)][Pro(3S-Et)][X1]F-OH) | < 100 |
| CCCC(NC(=O)[C@@H]1[C@@H](CC)CCN1C(=O)[C@@H](NC(=O)[C@@H](NC(=O)c1cnccn1)C(C)C)[C@@H](C)OC)C(=O)C(=O)N[C@@H](Cc1ccccc1)C(=O)O (stereo partly drawn) [Compound 35] (Pyrazinecarbonyl-VT(Me)[Pro(3S-Et)][X1]F-OH) | > 500 |
| CCCC(NC(=O)[C@@H]1[C@@H](CC2CC2)CCN1C(=O)[C@@H](NC(=O)[C@@H](NC(=O)c1cnccn1)C(C)C)C(C)C)C(=O)C(=O)N[C@@H](Cc1ccccc1)C(=O)O (stereo partly shown) [Compound 20] | 100 to 500 |
| CCCC(NC(=O)[C@@H]1[C@@H](CC)CCN1C(=O)[C@@H](NC(=O)[C@@H](NC(=O)c1cnccn1)C(C)C)[C@H](C)OC)C(=O)C(=O)N[C@@H](Cc1ccccc1)C(=O)O (stereo partly drawn) [Compound 33] (Pyrazinecarbonyl-V[aThr](Me)[Pro(3S-Et)][X1]F-OH) | 100 to 500 |
| CCCC(NC(=O)[C@@H]1[C@@H](CC)CCN1C(=O)[C@@H](NC(=O)[C@@H](NC(=O)c1cnccn1)C(C)C)[C@@H](C)OCC)C(=O)C(=O)N[C@@H](Cc1ccccc1)C(=O)O (stereo partly drawn) [Compound 36] (Pyrazinecarbonyl-VT(Et)[Pro(3S-Et)][X1]F-OH) | 100 to 500 |
| CCCC(NC(=O)[C@@H]1[C@@H](CC)CCN1C(=O)[C@@H](NC(=O)[C@@H](NC(=O)c1cnccn1)C1CCCCC1)C(C)CC)C(=O)C(=O)N[C@@H](C)c1ccccc1 (stereo partly shown) [Compound 51] | 100 to 500 |
| CCCC(NC(=O)[C@@H]1[C@@H](C(=O)OC)CCN1C(=O)[C@@H](NC(=O)[C@@H](NC(=O)c1cnccn1)C(C)C)C(C)C)C(=O)C(=O)N[C@@H](Cc1ccccc1)C(=O)O (stereo partly shown) [Compound 15] | 100 to 500 |
| CCCC(NC(=O)[C@@H]1[C@@H](CC)CCN1C(=O)[C@@H](NC(=O)[C@@H](NC(=O)c1cnccn1)C(C)C)C(C)CC)C(=O)C(=O)N[C@@H](Cc1ccccc1)C(=O)O (stereo partly drawn) [Compound 30] (Pyrazinecarbonyl-V[Ile(3ξ)][Pro(3S-Et)][X1]F-OH) | 100 to 500 |
| CCCC(NC(=O)[C@@H]1[C@@H](CC)CCN1C(=O)[C@@H](NC(=O)[C@@H](NC(=O)c1cnccn1)C1CCCCC1)C(C)C)C(=O)C(=O)N[C@@H](C)c1ccccc1 (stereo partly shown) [Compound 43] | 100 to 500 |
| CCCC(NC(=O)[C@@H]1[C@@H](CC)CCN1C(=O)[C@@H](NC(=O)[C@@H](NC(=O)c1cnccn1)C(C)C)C1CCCCC1)C(=O)C(=O)N[C@@H](Cc1ccccc1)C(=O)O (stereo partly drawn) [Compound 32] (Pyrazinecarbonyl-V[Chg][Pro(3S-Et)][X1]F-OH) | 100 to 500 |
| CCCC(NC(=O)[C@@H]1[C@@H](CC)CCN1C(=O)[C@@H](NC(=O)[C@H](Cc1ccccc1C)NC(=O)c1cnccn1)C(C)C)C(=O)C(=O)N[C@@H](Cc1ccccc1)C(=O)O (stereo partly drawn) [Compound 27] (Pyrazinecarbonyl-[Phe(2-Me)]V[Pro(3S-Et)][X1]F-OH) | < 100 |
| CCCC(NC(=O)[C@@H]1[C@@H](CC)CCN1C(=O)[C@@H](NC(=O)[C@H](CC(C)C)NC(=O)c1cnccn1)C(C)C)C(=O)C(=O)N[C@@H](Cc1ccccc1)C(=O)O (stereo partly drawn) [Compound 28] (Pyrazinecarbonyl-LV[Pro(3S-Et)][X1]F-OH) | < 100 |
| CCCC(NC(=O)[C@@H]1[C@@H](C)CCN1C(=O)[C@@H](NC(=O)[C@@H](NC(=O)c1cnccn1)C(C)C)C(C)C)C(=O)C(=O)N[C@@H](Cc1ccccc1)C(=O)O (stereo partly shown) [Compound 22] | 100 to 500 |
| CCCC(NC(=O)[C@@H]1[C@@H](CC)CCN1C(=O)[C@@H](NC(=O)[C@@H](NC(=O)c1ncc[nH]1)C1CCCCC1)C(C)C)C(=O)C(=O)NC1CC1 (stereo partly shown) [Compound 53] | 100 to 500 |
| CCCC(NC(=O)[C@@H]1[C@@H](CC)CCN1C(=O)[C@@H](NC(=O)[C@@H](NC(=O)c1cnccn1)C1CCCCC1)C1CCCCC1)C(=O)C(=O)NC1CC1 (stereo partly shown) [Compound 46] | 100 to 500 |
| CCCC(NC(=O)[C@@H]1[C@@H](CC)CCN1C(=O)[C@@H](NC(=O)[C@@H](NC(=O)c1cnccn1)C1CCCCC1)C(C)C)C(=O)C(=O)NC1CC1 (stereo partly shown) [Compound 45] | > 500 |
| CCCC(NC(=O)[C@@H]1[C@@H](C(C)C)CCN1C(=O)[C@@H](NC(=O)[C@@H](NC(=O)c1cnccn1)C(C)C)C(C)C)C(=O)C(=O)N[C@@H](Cc1ccccc1)C(=O)O (stereo partly drawn) [Compound 16] (Pyrazinecarbonyl-VV[Pro(trans-3-iPr)][X1]F-OH) | 100 to 500 |
| CCCC(NC(=O)[C@@H]1[C@@H](CC)CCN1C(=O)[C@@H](NC(=O)[C@@H](NC(=O)c1cnccn1)C1CCCCC1)C1CCCCC1)C(=O)C(=O)N[C@@H](C)c1ccccc1 (stereo partly shown) [Compound 50] | 100 to 500 |
| CCCC(NC(=O)[C@@H]1[C@@H](CC)CCN1C(=O)[C@@H](NC(=O)[C@@H](NC(=O)c1cnccn1)C1CCCCC1)C1CCCCC1)C(=O)C(=O)N[C@@H](Cc1ccccc1)C(=O)O (stereo partly drawn) [Compound 42] (Pyrazinecarbonyl-[Chg][Chg][Pro(3S-Et)][X1]F-OH) | < 100 |
| CCCC(NC(=O)[C@@H]1[C@@H](CC)CCN1C(=O)[C@@H](NC(=O)[C@@H](NC(=O)c1cnccn1)C1CCCCC1)C(C)CC)C(=O)C(=O)NC1CC1 (stereo partly shown) [Compound 25] | 100 to 500 |
| CCCC(NC(=O)[C@@H]1[C@@H](CC)CCN1C(=O)[C@@H](NC(=O)[C@@H](NC(=O)c1cnccn1)C1CCCCC1)C(C)C)C(=O)C(=O)N[C@@H](Cc1ccccc1)C(=O)O (stereo partly drawn) [Compound 26] (Pyrazinecarbonyl-[Chg]V[Pro(3S-Et)][X1]F-OH) | < 100 |
| CCCC(NC(=O)[C@@H]1[C@@H](CC)CCN1C(=O)[C@@H](NC(=O)[C@@H](NC(=O)c1cnccn1)C(C)C)C(C)(C)C)C(=O)C(=O)N[C@@H](Cc1ccccc1)C(=O)O (stereo partly drawn) [Compound 31] (Pyrazinecarbonyl-V[Tle][Pro(3S-Et)][X1]F-OH) | < 100 |
| C=C[C@H]1CCN(C(=O)[C@@H](NC(=O)[C@@H](NC(=O)c2cnccn2)C(C)C)C(C)C)[C@@H]1C(=O)NC(CCC)C(=O)C(=O)N[C@@H](Cc1ccccc1)C(=O)O (stereo partly shown) [Compound 19] | 100 to 500 |
| CCCC(NC(=O)[C@@H]1[C@@H](C(C)CC)CCN1C(=O)[C@@H](NC(=O)[C@@H](NC(=O)c1cnccn1)C(C)C)C(C)C)C(=O)C(=O)N[C@@H](Cc1ccccc1)C(=O)O (stereo partly shown) [Compound 57] | < 100 |

test system: Cells containing hepatitis C virus (HCV) replicon; experiment: HCV replicon cell assay; format: cell-based; settings: 50% inhibition of HCV RNA level, 48-hour incubation, Taqman real-time RT-PCR, read-out: IC50
Protocol: HCV Replicon Cell Assay Protocol
Cells containing hepatitis C virus (HCV) replicon were maintained in DMEM containing 10% fetal bovine serum (FBS), 0.25 mg per ml of G418, with appropriate supplements (media A).
On day 1, replicon cell monolayer was treated with a trypsin:EDTA mixture, removed, and then media A was diluted into a final concentration of 100,000 cells per ml with. 10,000 cells in 100 ul were plated into each well of a 96-well tissue culture plate, and cultured overnight in a tissue culture incubator at 37° C.
On day 2, compounds (in 100% DMSO) were serially diluted into DMEM containing 2% FBS, 0.5% DMSO, with appropriate supplements (media B). The final concentration of DMSO was maintained at 0.5% throughout the dilution series.
Media on the replicon cell monolayer was removed, and then media B containing various concentrations of compounds was added. Media B without any compound was added to other wells as no compound controls.
Cells were incubated with compound or 0.5% DMSO in media B for 48 hours in a tissue culture incubator at 37° C. At the end of the 48-hour incubation, the media was removed, and the replicon cell monolayer was washed once with PBS and stored at −80° C. prior to RNA extraction.
Culture plates with treated replicon cell monolayers were thawed, and a fixed amount of another RNA virus, such as Bovine Viral Diarrhea Virus (BVDV) was added to cells in each well. RNA extraction reagents (such as reagents from RNeasy kits) were added to the cells immediately to avoid degradation of RNA. Total RNA was extracted according the instruction of manufacturer with modification to improve extraction efficiency and consistency. Finally, total cellular RNA, including HCV replicon RNA, was eluted and stored at −80° C. until further processing.
A Taqman real-time RT-PCR quantification assay was set up with two sets of specific primers and probe. One was for HCV and the other was for BVDV. Total RNA extractants from treated HCV replicon cells was added to the PCR reactions for quantification of both HCV and BVDV RNA in the same PCR well. Experimental failure was flagged and rejected based on the level of BVDV RNA in each well. The level of HCV RNA in each well was calculated according to a standard curve run in the same PCR plate. The percentage of inhibition or decrease of HCV RNA level due to compound treatment was calculated using the DMSO or no compound control as 0% of inhibition. The IC50 (concentration at which 50% inhibition of HCV RNA level is observed) was calculated from the titration curve of any given compound.

| Compound | IC50 [nM] |
| --- | --- |
| CCCC(NC(=O)[C@@H]1[C@@H](CC)CCN1C(=O)[C@@H](NC(=O)[C@@H](NC(=O)c1cnccn1)C(c1ccccc1)c1ccccc1)C(C)C)C(=O)C(=O)NC1CC1 (stereo partly shown) [Compound 60] | > 1000 |

same assay, conditions: 48 h

| Compound | IC50 [nM] |
| --- | --- |
| CCCC(NC(=O)[C@@H]1[C@@H](CC)CCN1C(=O)[C@@H](NC(=O)[C@@H](NC(=O)c1cnccn1)C1CCCCC1)C(C)(C)C)C(=O)C(=O)N[C@@H](Cc1ccccc1)C(=O)O (stereo partly drawn) [Compound 41] (Pyrazinecarbonyl-[Chg][Tle][Pro(3S-Et)][X1]F-OH) | < 500 |
